According to ChEMBL document CHEMBL3639113, “TRPA1 antagonists” (2015):

Biological target: Transient receptor potential cation channel subfamily A member 1 (Homo sapiens, UniProt O75762)
Assay: FLIPR Calcium Assay: Ca2+ influx was measured using a FLIPR calcium assay kit (R8033; Molecular Devices, Sunnyvale, Calif.). The Ca2+ indicator dye was dissolved in Hanks' balanced salt solution supplemented with 20 mM HEPES buffer (HBSS/HEPES) according to the manufacturer instructions. Prior to start of the assay, the medium was removed by aspiration, and cells were loaded with 100 μL Ca2+ dye for 2 to 3 hours at room temperature. […] (4×) solutions of the test compounds were prepared in HBSS/HEPES, and 50 μL were added to the cells at a delivery rate of 10 μL/sec. Changes in fluorescence were measured over time in a fluorometric imaging plate reader (FLIPR, Molecular Devices). Two additions were made over the course of an experimental run. For agonist experiments, assay buffer was added at the 10 s time point, followed by addition of agonist at the 3 minute 10 sec time point.

Sequence of Transient receptor potential cation channel subfamily A member 1 (O75762 whole entry): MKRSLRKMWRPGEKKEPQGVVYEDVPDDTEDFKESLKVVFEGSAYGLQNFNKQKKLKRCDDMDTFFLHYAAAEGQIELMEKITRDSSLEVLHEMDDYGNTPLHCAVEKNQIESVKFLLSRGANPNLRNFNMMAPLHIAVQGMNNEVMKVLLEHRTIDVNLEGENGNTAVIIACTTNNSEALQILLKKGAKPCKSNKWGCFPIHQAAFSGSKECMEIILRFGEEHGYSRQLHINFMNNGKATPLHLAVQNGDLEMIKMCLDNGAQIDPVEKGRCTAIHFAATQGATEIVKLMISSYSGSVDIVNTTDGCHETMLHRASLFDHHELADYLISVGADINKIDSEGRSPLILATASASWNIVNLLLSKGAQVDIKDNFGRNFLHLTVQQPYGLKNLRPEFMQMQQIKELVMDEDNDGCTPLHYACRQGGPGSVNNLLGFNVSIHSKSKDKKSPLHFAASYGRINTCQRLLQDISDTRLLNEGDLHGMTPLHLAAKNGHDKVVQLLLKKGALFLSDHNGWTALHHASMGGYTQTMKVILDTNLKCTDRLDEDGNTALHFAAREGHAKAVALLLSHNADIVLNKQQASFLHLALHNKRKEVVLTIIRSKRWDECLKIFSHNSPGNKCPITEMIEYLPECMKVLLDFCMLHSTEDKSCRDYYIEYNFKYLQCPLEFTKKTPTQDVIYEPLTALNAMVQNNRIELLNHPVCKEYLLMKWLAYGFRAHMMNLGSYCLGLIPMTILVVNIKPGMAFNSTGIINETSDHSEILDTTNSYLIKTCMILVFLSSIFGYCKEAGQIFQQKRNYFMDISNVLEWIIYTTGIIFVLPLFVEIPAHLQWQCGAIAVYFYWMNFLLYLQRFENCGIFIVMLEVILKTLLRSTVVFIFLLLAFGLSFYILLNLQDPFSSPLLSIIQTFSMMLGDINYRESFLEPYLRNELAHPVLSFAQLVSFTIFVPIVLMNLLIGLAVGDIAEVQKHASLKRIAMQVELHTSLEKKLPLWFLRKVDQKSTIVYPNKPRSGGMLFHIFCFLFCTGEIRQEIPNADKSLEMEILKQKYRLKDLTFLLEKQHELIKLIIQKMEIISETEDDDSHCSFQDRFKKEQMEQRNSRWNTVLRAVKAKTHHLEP

Row | IC50 [µM] | SMILES
1 | 8.3 | CCC(=N\OC)/C(C)=C/c1ccc(F)cc1
2 | > 100 | CCC(=N\O)/C(C)=C/c1ccc(F)c(C#N)c1
